Read-outs that look alike come from different tables or passages of the source.
Assays:
[1] = target: T1, androgen receptor of rat ventral prostate (Rattus norvegicus, UniProt P15207); experiment: Competition with [3H]R1881 for androgen receptor binding, cell-free assay (Table 1)
T1 construct: androgen receptors isolated, as described in Chang, C., et al., J. Steroid Biochem., 27:123 (1987), from rat ventral prostate; from tissue; host or cells: rat ventral prostate
T1 sequence (P15207 1-902): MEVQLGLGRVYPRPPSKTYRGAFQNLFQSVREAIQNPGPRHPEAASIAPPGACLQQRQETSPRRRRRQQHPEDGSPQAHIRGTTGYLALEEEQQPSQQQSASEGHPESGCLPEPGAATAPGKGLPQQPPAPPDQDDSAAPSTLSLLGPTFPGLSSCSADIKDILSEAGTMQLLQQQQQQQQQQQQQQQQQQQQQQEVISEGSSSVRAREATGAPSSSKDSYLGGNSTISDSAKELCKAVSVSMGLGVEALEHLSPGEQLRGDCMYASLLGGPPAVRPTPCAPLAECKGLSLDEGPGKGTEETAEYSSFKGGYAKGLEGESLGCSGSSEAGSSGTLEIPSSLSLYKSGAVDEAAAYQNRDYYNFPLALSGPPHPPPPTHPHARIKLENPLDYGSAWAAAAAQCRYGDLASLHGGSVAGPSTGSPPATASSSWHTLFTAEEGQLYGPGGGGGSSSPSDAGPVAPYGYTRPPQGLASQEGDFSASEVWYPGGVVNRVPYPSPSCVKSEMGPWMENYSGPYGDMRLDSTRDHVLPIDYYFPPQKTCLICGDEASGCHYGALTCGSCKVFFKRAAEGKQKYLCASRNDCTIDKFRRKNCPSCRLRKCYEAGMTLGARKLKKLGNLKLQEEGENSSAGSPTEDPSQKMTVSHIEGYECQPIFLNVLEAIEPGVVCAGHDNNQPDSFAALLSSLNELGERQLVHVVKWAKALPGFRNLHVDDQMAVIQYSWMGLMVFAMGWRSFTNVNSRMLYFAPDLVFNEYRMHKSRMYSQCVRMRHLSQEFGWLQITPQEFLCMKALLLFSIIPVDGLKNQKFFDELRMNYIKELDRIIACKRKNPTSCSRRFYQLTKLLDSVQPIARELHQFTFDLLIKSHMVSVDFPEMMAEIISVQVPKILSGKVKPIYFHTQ

ventral prostate = conditions: rats; Chang et al. 1987; cited from earlier work
androgen receptors = conditions: Chang et al. 1987; cited from earlier work
[2] = in parentheses, relative to R1881 = 100.00, cell-free, rat ventral prostate

| IC50 [1] [µM] | Relative receptor binding activity (RBA) [1, 2] | Molecule | Relative receptor binding activity (RBA) [1] | inhibition of growth of the ventral prostate (ventral prostate) | interaction with androgen receptors in cell-free systems (androgen receptors) | IC50 ([1]; read-out: IC50 (concentration of test compound needed to show 50% inhibition of [3H]R1881 binding), [3H]R1881 (17a-methyltrienolone) binding, androgen receptor of rat ventral prostate, cell-free) [µM] |
| --- | --- | --- | --- | --- | --- | --- |
| 3.6 | 0.56 | OCCc1ccc2c(c1)CCc1ccccc1-2 [Compound 26, 2-(2'-hydroxyethyl)-9,10-dihydrophenanthrene] |  |  |  |  |
| 47.9 | 0.04 | OCC(O)c1ccc2c(c1)CCc1ccccc1-2 (stereo not shown) [Compound 27, 2-(2',3'-dihydroxyethyl)-9,10-dihydrophenanthrene] |  |  |  |  |
| 60 | 0.03 | c1ccc2c(c1)CCc1ccccc1C2 [10,11-dihydro-5H-dibenzo-[a,d]cycloheptene, reference compound] |  |  |  |  |
| 7.9 | 0.25 | Oc1ccc2c(c1)CCc1ccccc1-2 [Compound 13, 2-Hydroxy-9,10-dihydrophenanthrene] |  |  |  |  |
| 1.3 | 1.53 | O=C1CCc2c(ccc3c2CCc2c(O)cccc2-3)C1 [Compound 22, 4'-oxo-7,8-cyclohexeno-9,10-dihydrophenanthren-1-ol] |  |  |  |  |
| 10 | 0.20 | c1ccc2c(c1)CCc1ccccc1-2 [9,10-dihydrophenanthrene, reference compound] |  | inhibits the growth of the ventral prostate in rats | interacts with androgen receptors in cell-free systems |  |
| 2.6 | 0.77 | CC(O)c1ccc2c(c1)CCc1ccccc1-2 (stereo not shown) [Compound 9, 1-[2-(9,10-Dihydrophenanthryl)]-1-ethanol] |  |  |  |  |

Continued, molecule first:

| Molecule | IC50 [1] [µM] | Relative receptor binding activity (RBA) [1, 2] | Relative receptor binding activity (RBA) [1] | inhibition of growth of the ventral prostate (ventral prostate) | interaction with androgen receptors in cell-free systems (androgen receptors) | IC50 ([1]; read-out: IC50 (concentration of test compound needed to show 50% inhibition of [3H]R1881 binding), [3H]R1881 (17a-methyltrienolone) binding, androgen receptor of rat ventral prostate, cell-free) [µM] |
| --- | --- | --- | --- | --- | --- | --- |
| O=C1CCc2c1ccc1c2CCc2ccccc2-1 (racemic) [Compound 6, 6,7,16,17-Tetrahydro-15H-cyclopenta[a]phenanthren-17-one] | 17.8 |  | 0.11 |  |  |  |
| OC1CCc2c1ccc1c2CCc2ccccc2-1 (stereo not shown) [Compound 7, 6,7,16,17-tetrahydro-15H-cyclo-penta[a]phen-anthren-17-ol] | 4.2 |  | 0.48 |  |  |  |
| c1cc2c(c3c1CCCC3)CCCC2 [1,2,3,4,5,6,7,8-octahydro-phenanthrene, reference compound] | 200 | 0.01 |  |  |  |  |
| c1ccc2c(c1)ccc1ccccc12 [phenanthrene, reference compound] | 800 | 0.0025 |  |  |  |  |
| 1-[2-(9(or 10)-methyl-9,10-dihydrophenanthryl)]-1-ethanol [Compound 11] |  |  | 0.29 |  |  | 6.8 |
| O=C1CCc2c(ccc3c2ccc2c(O)cccc23)C1 [Compound 25, 4'-oxo-7,8-cyclohexenophenanthren-1-ol] | > 100 |  | < 0.02 |  |  |  |

— patent US5208263A, “Anti-androgen compounds” (Arch Development Corporation, priority 1989, dated 1993)
